From patent US20230134843A1, “TREATMENT OF STEM CELL DEFICIENCY” (OSPEDALE SAN RAFFAELE S.R.L., priority 2020, published 2023) come the findings set out here.

The target in the experiment is T1, NK1R (Mus musculus, UniProt P30548).
T1 construct: NK1R is expressed by both corneal epithelial and stem cell-like cells; from tissue; host or cells: cornea / ocular surface of live C57BL6/N mice (topical dosing in vivo)
Briefly: Epithelial corneal damage by corneal fluorescein staining, acute ocular GVHD mouse model. It counts as in vivo, mice. The conditions noted are these: Fosaprepitant 10 mg/mL topically six times a day (BM+T+Fosa); from day 14, p<0.05. How it is done:
10-week-old male BALB/C and C57BL/6N mice (Charles River Laboratory, Lecco, Italy) were used for all the experiments (n=5/each group). All mice were free from ocular surface disease at baseline. The housing conditions were controlled (temperature 22° C., light from 07:00-19:00, humidity 50%-60%), and fresh food and water were freely available. The animals were monitored 3 times per week for 28 days post-transplantation for in vivo slit-lamp microscopy imaging, ocular surface score and systemic GVHD score (FIG. 11A). Carbon dioxide inhalation and subsequent cervical dislocation were applied to euthanize the animals. All the experiments were approved by the Animal Care and Use Committee of the IRCCS San Raffaele Scientific Institute, in accordance with the ARVO Statement for the Use of Animals in Ophthalmic and Vision Research.
Allogenic BMT was conducted using the C57BL/6N and BALB/c mice as transplant donors and recipients, respectively. […]
Clinical examination was performed to evaluate the ocular disease progression. […] Tear production was quantified with phenol red thread test (Zone-Quick; Lacrimedics, Eastsound, Wash., USA). […] The length of the moistened thread was measured in both eyes and the average was used as lacrimal tear volume for comparative analysis.

Entries after “also recorded” stand apart in the source; their conditions may differ.

T1 sequence (P30548 whole entry): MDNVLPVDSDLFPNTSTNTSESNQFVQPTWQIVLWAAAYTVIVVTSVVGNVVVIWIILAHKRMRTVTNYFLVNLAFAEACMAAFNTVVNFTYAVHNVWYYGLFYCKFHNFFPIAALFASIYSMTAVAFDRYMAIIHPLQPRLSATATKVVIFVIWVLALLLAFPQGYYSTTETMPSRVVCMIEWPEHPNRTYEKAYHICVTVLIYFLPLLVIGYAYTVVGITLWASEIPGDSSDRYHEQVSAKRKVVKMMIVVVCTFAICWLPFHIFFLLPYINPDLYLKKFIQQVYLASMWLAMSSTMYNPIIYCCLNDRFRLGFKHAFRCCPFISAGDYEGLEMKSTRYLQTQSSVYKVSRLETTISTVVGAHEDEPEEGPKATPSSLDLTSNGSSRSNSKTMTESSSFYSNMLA

On to `C[C@@H](O[C@H]1OCCN(Cc2nc(=O)n(P(=O)(O)O)[nH]2)[C@H]1c1ccc(F)cc1)c1cc(C(F)(F)F)cc(C(F)(F)F)c1` [Fosaprepitant, [3-{[(2R,3S)-2-[(1R)-1-[3,5-bis(trifluoromethyl)phenyl]ethoxy]-3-(4-fluorophenyl)morpholin-4-yl]methyl}-5-oxo-2H-1,2,4-triazol-1-yl]phosphonic acid], for which the “corneal fluorescein staining compared to BM+T mice” value is “reduction; also recorded: significantly reduced”.
